Laboratory results published in paper PMC6125541, “Bioequivalence of a Fixed-Dose Combination Tablet of the Complete Two-Drug Regimen of Dolutegravir and Rilpivirine for Treatment of HIV-1 Infection” (Antimicrobial Agents and Chemotherapy, 2018).

Tests used:
[1] = Phase I open-label randomized 2-way crossover bioequivalence study, plasma pharmacokinetics of DTG and RPV; assay type: in vivo, healthy adults; conditions: blind sample size reestimation after 57 participants
Source text: This phase I study (ViiV-clinicalstudyregister.com identifier 201676) utilized an open-label, randomized, 2-way crossover design at a single center (Quintiles, Overland Park, KS, USA) (Fig. 2). The total duration of the study was approximately 8 weeks from the time of screening to the last follow-up visit. A crossover design was selected for this study to allow within-participant comparisons to be performed, thereby reducing the number of participants required for the study. Rilpivirine has a long half-life (∼50 h) ([15]); therefore, a 21-day washout between doses and a long pharmacokinetic sampling period were implemented to ensure that predose concentrations were negligible and that pharmacokinetic parameters could be well estimated.
The reference treatment consisted of DTG 50-mg tablets (Tivicay; ViiV Healthcare, Research Triangle Park, NC, USA), which were identical in composition to the commercial form except for a different film coat color, and commercial RPV 25-mg tablets (Edurant; Janssen Therapeutics, Titusville, NJ, USA). The test treatment was the FDC tablet with DTG at 50 mg and RPV at 25 mg (Juluca; ViiV Healthcare, Research Triangle Park, NC, USA).
Participants were randomly assigned 1:1 to 1 of 2 treatment sequences according to a randomization schedule generated before the start of the study. […]

[2] = set-up: method as in PMID 24798770; conditions: cited from earlier work
[3] = set-up: method as in PMID 23979733; conditions: DTG 50 mg once daily and RPV 25 mg once daily with a moderate-fat meal; cited from earlier work
[4] = cited from earlier work

## C[C@@H]1CCO[C@H]2Cn3cc(C(=O)NCc4ccc(F)cc4F)c(=O)c(O)c3C(=O)N12 [DTG, dolutegravir]
[1]
  Observed within-participant coefficient of variation (CVw) of Cmax: 14.8%
[2]
  Plasma exposure in the fed state: increase
[3]
  Change in AUC0–t or Cmax on coadministration: no significant change

## Cc1cc(/C=C/C#N)cc(C)c1Nc1ccnc(Nc2ccc(C#N)cc2)n1 [RPV, rilpivirine]
[1]
  Observed within-participant coefficient of variation (CVw) of Cmax: 32.9%
[3]
  Change in AUC0–t or Cmax on coadministration: no significant change
[4]
  Half-life: ~50 h
[4]; fasting vs normal-fat meal
  Decrease in absorption after fasting versus a normal-fat meal: approximately 40%
